Reference: patent publication US5776720A, “Assay reagent” (priority 1995, dated 1998)
Several values for one entry are separate records, joined by “and”; a condition that tells them apart may be missing. Equal entries are not always repeated. Numbered stars: 1 amine (or outer) side, 2 acyl side, 3 side chain; on linkers, the order of the positions; unused ones are H or OH. Bridge positions count the residues as written; N and C are the ends. Peptide text beside a SMILES is read from it. I, II: the chains in the order shown. Rhodamine110 = O=C1OC2(c3ccc(N[*:1])cc3Oc3cc(N[*:2])ccc32)c2ccccc21

How the values were obtained:
Assay type in all cases: cell-based, human
[1] = system: lymphocytes; assay: Normal leukocyte enzyme activity (Table 3A), lymphocytes; parameters: unit not given here; settings: normal donors
Description: (§1) The measured fluorescence intensity can be converted from mean channel fluorescence (in peak or integrated mode) to MESF (molecules of equivalent soluble fluorochrome, Flow Cytometry Standards Corp. , San Juan, Puerto Rico) or International Units of hydrolysis per cell. A normal range of enzyme activity is established by assaying males and females in sufficient quantity to characterize the population levels statistically.
(§2) A normal in house adult donor pool was drawn, recording sex and determining that no known disease state was present at the time of sample draw. Criteria for rejecting samples included patients under medication, patients with infection or inflammation of any type, colds and flu as well as any known medical illness such as cancer, heart ailment and high blood pressure. A donor list of 75 patients has been developed and a mean and 2 sd range established. A subgroup of "super normals" was developed from this list by examining the 75 patients to determine which group falls closest to the mean for all enzymes in all cell types tested. These patients were used as the "wellness index" or best group of "normalcy" patients. If a study required the use of children or newborns then this same format was used to develop a data base for these age groups.

[2] = system: erythrocytes; assay: Normal erythrocyte enzyme activity (Table 3B); settings: normal donors
Method: A sample, consisting of whole blood (in EDTA, Heparin or ACD) or dissociated tissue or body fluids (synovial fluid) or cell culture media is obtained and stored in a manner so as not to decrease viability. The sample is washed sufficiently to remove plasma, media, body fluid, debris and extra-cellular enzymes. The wash media consists of a physiologically balanced buffered salt solution. The washed cells are incubated at 37° C. 50 μL of sample and 25 μL of substrate media are mixed together and allowed to incubate at 37° C. for a predetermined amount of time. At the end of the incubation period, the sample is then measured for fluorescence.
as §2

[3] = system: granulocytes; assay: Normal leukocyte enzyme activity (Table 3A), granulocytes; parameters: unit not given here; settings: normal donors
Description: as §1, §2

[4] = system: granulocyte; assay: Peptidases to distinguish leukemia from non-leukemia (Table 6C), grans
Description: Artificial intelligence was used to analyze data of cellular enzyme functions, and determine normal and disease states. Peptidases were used to distinguish leukemia from non-leukemia (output pattern). For input patterns lymphocyte and granulocyte cell types were used with aminopeptidases, cathepsins and dipeptidylpeptidase enzyme activities. In this Example, illustrated in Tables 6A-6C, three normals and three leukemia patients were used as known output patterns for the neural network to learn (in practice, the larger the learning set the more accurate unknown prediction will be). Unknowns were then presented to the learned algorithm as shown in the test case examples. Clinical diagnosis was confirmed by physicians. The trained neural network was able to correctly classify the leukemia from the non-leukemia.

[5] = system: monocytes; assay: Normal leukocyte enzyme activity (Table 3A), monocytes; parameters: unit not given here; settings: normal donors
Description: as §1, §2

[6] = system: MONOS; assay: Aberrant enzyme activities in febrile children (Table 7), monos
[7] = system: GRANS; assay: Aberrant enzyme activities in febrile children (Table 7), grans
[8] = system: Ala-aminopeptidase and Lys-aminopeptidase, Dipeptidyl peptidase IV and Cathepsin D; assay: Panel of substrates in normals and HIV+ patients (Table 4)
Method: A panel of assay compounds are assembled consisting of Ala-aminopeptidase and Lys-aminopeptidase, Dipeptidyl peptidase IV (Ala-Ala)2 rhodamine 110 and Cathepsin D to indicate possible TB infection in AIDS related cases.
A panel of enzymatic substrates is performed consisting of Ala-aminopeptidase and Lys-aminopeptidase, Dipeptidyl peptidase IV (Ala-Ala)2 rhodamine 110 and Cathepsin D to indicate possible TB infection in AIDS related cases.

Row | Compound | NORMAL LEUKOCYTE ENZYME ACTIVITY, LYMPHS Mean [1] | NORMAL E[…] ACTIVITY MEAN [2] | NORMAL LEUKOCYTE ENZYME ACTIVITY, GRANS Mean [3] | NORMAL LEUKOCYTE ENZYME ACTIVITY, MONOS Mean [5] | also measured
1 | CC(=O)Oc1ccc2c(c1)Oc1cc(OC(C)=O)ccc1C21OC(=O)c2ccccc21 [FDA, fluorescein diacetate, reference compound] | 13.38 | 0.126 | 68.37 | – | –
2 | NCCCC[C@H](N)C(=O)Nc1ccc2c(c1)Oc1cc(NC(=O)[C@@H](N)CCCCN)ccc1C21OC(=O)c2ccccc21 [LYS, (H--L--Lys)2 Rho 110.4TFA] | 1.16 | – | 4.27 | 7.56 | enzyme activity ([4]; N194 NORMAL): 1.66
3 | CC(C)C[C@H](N)C(=O)NCC(=O)Nc1ccc2c(c1)Oc1cc(NC(=O)CNC(=O)[C@@H](N)CC(C)C)ccc1C21OC(=O)c2ccccc21 [LG] | 13.83 | – | 29.99 | 44.56 | enzyme activity ([4]; N193 NORMAL): 3.55; enzyme activity ([4]; N199* NORMAL (later found to have cervical cancer)): 2.02
4 | dichlorofluorescein | – | 0.268 | – | – | aberrant enzyme activity ([6]; P89 Viral Stomatitis): + (>0.25 Increase over normal range); aberrant enzyme activity ([6]; P92 Adenitis): + (>0.25 Increase over normal range); aberrant enzyme activity ([6]; P95 Viral Syndrome): + (>0.25 Increase over normal range); aberrant enzyme activity ([6]; P96 Viral Syndrome): + (>0.25 Increase over normal range); aberrant enzyme activity ([6]; P97 Pyelonephritis): + (>0.25 Increase over normal range); aberrant enzyme activity ([6]; P101 Fever-Unknown Origin): + (>0.25 Increase over normal range); aberrant enzyme activity ([6]; P103 Viral Syndrome): °; aberrant enzyme activity ([7]; P89 Viral Stomatitis): + (>0.25 Increase over normal range); aberrant enzyme activity ([7]; P92 Adenitis): + (>0.25 Increase over normal range); aberrant enzyme activity ([7]; P95 Viral Syndrome): + (>0.25 Increase over normal range); aberrant enzyme activity ([7]; P96 Viral Syndrome): + (>0.25 Increase over normal range); aberrant enzyme activity ([7]; P97 Pyelonephritis): + (>0.25 Increase over normal range); aberrant enzyme activity ([7]; P101 Fever-Unknown Origin): + (>0.25 Increase over normal range); aberrant enzyme activity ([7]; P103 Viral Syndrome): + (>0.25 Increase over normal range)
5 | CC(=O)Oc1ccc2c(c1)Oc1cc(OC(C)=O)ccc1C21OC(=O)c2ccccc21 [FDA--NAF, fluorescein diacetate, reference compound] | 17.98 | 0.136 | 81.99 | 93.36 | –
6 | NCC(=O)Nc1ccc2c(c1)Oc1cc(NC(=O)CN)ccc1C21OC(=O)c2ccccc21 [GLY, (Gly)2 Rho 110] | 18.18 | – | 29.48 | – | enzyme activity ([4]; N192 NORMAL): 48.67
7 | CC(C)C[C@H](NC(=O)[C@@H]1CCCN1C(=O)CN)C(=O)NCC(=O)N1CCC[C@H]1C(=O)Nc1ccc2c(c1)Oc1cc(NC(=O)[C@@H]3CCCN3C(=O)CNC(=O)[C@H](CC(C)C)NC(=O)[C@@H]3CCCN3C(=O)CN)ccc1C21OC(=O)c2ccccc21 [GPLGP, (H--Gly--Pro--Leu--Gly--Pro)2 Rho 110.2TFA] (I: H-GPLGP / II: H-GPLGP; linker I:C-II:C via Rhodamine110) | 8.97 | 0.164 | 16.88 | 23.38 | –
8 | N=C(N)NCCC[C@H](N)C(=O)NCC(=O)N[C@@H](CCC(=O)O)C(=O)N[C@@H](CO)C(=O)Nc1ccc2c(c1)Oc1cc(NC(=O)[C@H](CO)NC(=O)[C@H](CCC(=O)O)NC(=O)CNC(=O)[C@@H](N)CCCNC(=N)N)ccc1C21OC(=O)c2ccccc21 (stereo partly drawn) [RGES, (Arg-Gly-Glu-Ser)2 Rho 110] (I: H-RGES / II: H-RGES; linker I:C-II:C via Rhodamine110) | 1.43 | 0.118 | 3.96 | 8.37 | –
9 | ALA--GLY* | – | – | – | – | MEAN DELTA FL ([8]; HIV + PATIENTS): 29.7; MEAN DELTA FL ([8]; HIV + PATIENTS, listed as ALA--GLY****): 39.9; MEAN DELTA FL ([8]; NORMALS): 31.6; MEAN DELTA FL ([8]; NORMALS, listed as ALA--GLY****): 48.0
10 | CC(C)C[C@H](NC(=O)CNC(=O)[C@@H](N)CC(C)C)C(=O)NCC(=O)Nc1ccc2c(c1)Oc1cc(NC(=O)CNC(=O)[C@H](CC(C)C)NC(=O)CNC(=O)[C@@H](N)CC(C)C)ccc1C21OC(=O)c2ccccc21 [LGLG, (H--L--Leu--Gly--Leu--Gly)2 Rho 110.2TFA] (I: H-LGLG / II: H-LGLG; linker I:C-II:C via Rhodamine110) | 1.42 | 0.122 | 4.08 | 11.36 | –
11 | NC(=O)CC[C@H](N)C(=O)N[C@@H](CO)C(=O)Nc1ccc2c(c1)Oc1cc(NC(=O)[C@H](CO)NC(=O)[C@@H](N)CCC(N)=O)ccc1C21OC(=O)c2ccccc21 (relative stereo) [GLN--SER*] | – | – | – | – | MEAN DELTA FL ([8]; HIV + PATIENTS): 13.7 and 12.7; MEAN DELTA FL ([8]; NORMALS): 11.9 and 6.1
12 | O=C1OC2(c3ccc(OP(=O)(O)O)cc3Oc3cc(OP(=O)(O)O)ccc32)c2ccccc21 [DPO4, (PO4)2 fluorescein] | 54.29 | 0.151 | 85.42 | 148.32 | –
13 | C[C@H](NC(=O)CNC(=O)[C@H](Cc1ccccc1)NC(=O)CN)C(=O)Nc1ccc2c(c1)Oc1cc(NC(=O)[C@H](C)NC(=O)CNC(=O)[C@H](Cc3ccccc3)NC(=O)CN)ccc1C21OC(=O)c2ccccc21 [GFGA, (Gly-Phe-Gly-Ala)2 Rho 110] (I: H-GFGA / II: H-GFGA; linker I:C-II:C via Rhodamine110) | – | 0.131 | – | 1.01 | –
14 | CCCCC(=O)Oc1ccc2c(c1)Oc1cc(OC(=O)CCCC)ccc1C21OC(=O)c2ccccc21 [DIVAL 6.5, FL(valerate)2] | 33.13 | – | 92.81 | 184.51 | –
15 | CC(C)C[C@H](NC(=O)[C@@H](N)CC(C)C)C(=O)N[C@@H](CCCNC(=N)N)C(=O)Nc1ccc2c(c1)Oc1cc(NC(=O)[C@H](CCCNC(=N)N)NC(=O)[C@H](CC(C)C)NC(=O)[C@@H](N)CC(C)C)ccc1C21OC(=O)c2ccccc21 (stereo partly drawn) [LLR, (H--L Leu--Leu--Arg)2 Rho 110.4TFA] | 4.09 | – | 9.46 | 54.32 | –
16 | O=C1OC2(c3ccc(NC(=O)[C@@H]4CCCN4)cc3Oc3cc(NC(=O)[C@@H]4CCCN4)ccc32)c2ccccc21 [PRO, (H--L--Pro)2 --Rho 110.2TFA] | 1.70 | – | 9.19 | 6.83 | –
17 | O=C1OC2(c3ccc(OC4O[C@H](CO)[C@@H](O)[C@H](O)[C@H]4O)cc3Oc3cc(OC4O[C@H](CO)[C@@H](O)[C@H](O)[C@H]4O)ccc32)c2ccccc21 (stereo partly drawn) [DIGLUC (FL)] | 0.23 | 0.110 | 0.45 | 1.89 | –
18 | N=C(N)NCCC[C@H](NC(=O)OCc1ccccc1)C(=O)Nc1ccc2c(c1)Oc1cc(NC(=O)[C@H](CCCNC(=N)N)NC(=O)OCc3ccccc3)ccc1C21OC(=O)c2ccccc21 (stereo partly drawn) [Z--ARG] | 2.02 | 0.106 | 7.22 | 16.80 | –
